Measured values published in paper PMC5487684, “Safety, Pharmacokinetics, and Antiviral Activity of a Novel HIV Antiviral, ABX464, in Treatment-Naive HIV-Infected Subjects in a Phase 2 Randomized, Controlled Study” (Antimicrobial Agents and Chemotherapy, 2017).

System: HIV-infected subjects
Experiment: Safety and tolerability (TEAEs, ECG, laboratory) after repeated oral administration, phase 2a study
Type: in vivo, human
Procedure: Participants were assigned to one of eight groups; each group (with one exception) included eight subjects receiving either ABX464 (n = 6) or the corresponding placebo (n = 2) according to a randomization code. […] In the present study with HIV-infected subjects, the first dose administered was 25 mg, given once or 3 times a day over a 2- to 3-week period. This initial dose was therefore considered safe for assessment of the safety and tolerability of ABX464 after repeated oral administrations in subjects infected by HIV and determination of the potential effect on the HIV viral load.
The final dosing protocol for each of the eight groups was as follows: group 1, 25 mg every 3 days for 2 to 3 weeks under fasted conditions; group 2, 25 mg once a day (q.d.) for 2 to 3 weeks under fasted conditions; group 3, 50 mg once a day for 2 to 3 weeks under fasted conditions; group 4, 50 mg 3 times a day (t.i.d.) for 4 weeks under fed conditions; group 5, 75 mg once a day for 2 weeks under fed conditions; group 6, 100 mg once a day for 2 to 3 weeks under fasted conditions; group 7, 150 mg every 3 days for 2 to 3 weeks under fed conditions; and group 8, 150 mg once a day for 2 weeks under fed conditions. Per the study protocol, the treatment period was defined as 2 weeks. […] The decision to proceed to the next highest dose was determined by the data and safety monitoring board after review of the laboratory safety data, vital signs, ECGs, and adverse event reports from the group receiving the current dose after 2 weeks of treatment.
Subjects were hospitalized from the day prior to the first dose to at least the morning of day 2. They were orally dosed with 25-mg capsules of ABX464 with 240 ml water under fed or fasted conditions. According to the group, subjects were dosed with 1, 2, 3, 4, or 6 capsules to deliver 25 mg, 50 mg, 75 mg, 100 mg, or 150 mg product, respectively, or the same number of placebo capsules.
Safety assessments and laboratory tests were carried out according to the schedules described in Table S4 for groups dosed every day, every 3 days, and 3 times a day. Follow-up visits were scheduled for 7 days after the last dose and subsequently once every week in order to assess the elimination of the main ABX464 metabolite and to assess the viral load. Follow-up visits were terminated when the virus load was within 0.5 log of the baseline value or after 3 follow-up visits, whichever came first. Prior to the statistical analyses, AEs were coded using the Medical Dictionary for Regulatory Activities (MedDRA dictionary; last available version) in order to be tabulated by system organ class (SOC) and preferred term (PT). The AEs were analyzed according to the treatment emergence phase from the first study drug administration on day 1 up to 48 h after the last study drug administration. The number and percentage of subjects with at least one TEAE were tabulated by SOC and PT for each group and dose. The number of occurrences of TEAEs was also analyzed in the same way by SOC and PT for each group and dose, by grade of severity for each group and dose, and by level of causality to the study drug for each group and dose.

[1] = Group 2 (n = 6), 25 mg q.d., fasted, Moderate
[2] = Group 3 (n = 7), 50 mg q.d., fasted, Mild
[3] = Group 3 (n = 7), 50 mg q.d., fasted, Moderate
[4] = Group 4 (n = 7), 50 mg t.i.d., fed, Mild
[5] = Group 4 (n = 7), 50 mg t.i.d., fed, Moderate

FC(F)(F)Oc1ccc(Nc2ccc3cccc(Cl)c3n2)cc1 [ABX464]
3 (42.9) No. (%): Subjects experiencing at least one TEAE: Gastrointestinal disorders [4] | Subjects experiencing at least one TEAE: Musculoskeletal and connective tissue disorders [4]
0 (0.0) No. (%): Subjects experiencing at least one TEAE: Total [1] | Subjects experiencing at least one TEAE: Upper abdominal pain [1] | Subjects experiencing at least one TEAE: Vomiting [1] | Subjects experiencing at least one TEAE: Abdominal pain [2] | Subjects experiencing at least one TEAE: Back pain [2] | Subjects experiencing at least one TEAE: Diarrhea [2] | Subjects experiencing at least one TEAE: Flank pain [2] | Subjects experiencing at least one TEAE: Injury, poisoning, and procedural complications [2] | Subjects experiencing at least one TEAE: Neck pain [2] | Subjects experiencing at least one TEAE: Pain in extremity [2] | Subjects experiencing at least one TEAE: Sciatica, back pain [2] | Subjects experiencing at least one TEAE: Skin abrasion [2] | Subjects experiencing at least one TEAE: Upper abdominal pain [2] | Subjects experiencing at least one TEAE: Abdominal pain [3] | Subjects experiencing at least one TEAE: Arthralgia [3] | Subjects experiencing at least one TEAE: Back pain [3] | Subjects experiencing at least one TEAE: Diarrhea [3] | Subjects experiencing at least one TEAE: Flank pain [3] | Subjects experiencing at least one TEAE: Injury, poisoning, and procedural complications [3] | Subjects experiencing at least one TEAE: Musculoskeletal and connective tissue disorders [3] | Subjects experiencing at least one TEAE: Nausea [3] | Subjects experiencing at least one TEAE: Neck pain [3] | Subjects experiencing at least one TEAE: Pain in extremity [3] | Subjects experiencing at least one TEAE: Sciatica, back pain [3] | Subjects experiencing at least one TEAE: Skin abrasion [3] | Subjects experiencing at least one TEAE: Upper abdominal pain [3] | Subjects experiencing at least one TEAE: Vomiting [3] | Subjects experiencing at least one TEAE: Abdominal pain [4] | Subjects experiencing at least one TEAE: Diarrhea [4] | Subjects experiencing at least one TEAE: Flank pain [4] | Subjects experiencing at least one TEAE: Injury, poisoning, and procedural complications [4] | Subjects experiencing at least one TEAE: Nausea [4] | Subjects experiencing at least one TEAE: Sciatica, back pain [4] | Subjects experiencing at least one TEAE: Skin abrasion [4] | Subjects experiencing at least one TEAE: Abdominal pain [5] | Subjects experiencing at least one TEAE: Arthralgia [5] | Subjects experiencing at least one TEAE: Back pain [5] | Subjects experiencing at least one TEAE: Diarrhea [5] | Subjects experiencing at least one TEAE: Flank pain [5] | Subjects experiencing at least one TEAE: Headache [5] | Subjects experiencing at least one TEAE: Injury, poisoning, and procedural complications [5] | Subjects experiencing at least one TEAE: Musculoskeletal and connective tissue disorders [5] | Subjects experiencing at least one TEAE: Nausea [5] | Subjects experiencing at least one TEAE: Neck pain [5] | Subjects experiencing at least one TEAE: Nervous system disorders [5] | Subjects experiencing at least one TEAE: Pain in extremity [5] | Subjects experiencing at least one TEAE: Sciatica, back pain [5] | Subjects experiencing at least one TEAE: Skin abrasion [5] | Subjects experiencing at least one TEAE: Vomiting [5] | Subjects experiencing at least one TEAE: Abdominal pain (Group 5 (n = 6), 75 mg q.d., fed, Mild)
2 (28.6) No. (%): Subjects experiencing at least one TEAE: Total [2] | Subjects experiencing at least one TEAE: Back pain [4] | Subjects experiencing at least one TEAE: Headache [4] | Subjects experiencing at least one TEAE: Nervous system disorders [4] | Subjects experiencing at least one TEAE: Upper abdominal pain [4]
7 (100.0) No. (%): Subjects experiencing at least one TEAE: Total [4]
1 (14.3) No. (%): Subjects experiencing at least one TEAE: Arthralgia [2] | Subjects experiencing at least one TEAE: Gastrointestinal disorders [2] | Subjects experiencing at least one TEAE: Headache [2] | Subjects experiencing at least one TEAE: Musculoskeletal and connective tissue disorders [2] | Subjects experiencing at least one TEAE: Nausea [2] | Subjects experiencing at least one TEAE: Nervous system disorders [2] | Subjects experiencing at least one TEAE: Vomiting [2] | Subjects experiencing at least one TEAE: Headache [3] | Subjects experiencing at least one TEAE: Nervous system disorders [3] | Subjects experiencing at least one TEAE: Total [3] | Subjects experiencing at least one TEAE: Arthralgia [4] | Subjects experiencing at least one TEAE: Neck pain [4] | Subjects experiencing at least one TEAE: Pain in extremity [4] | Subjects experiencing at least one TEAE: Vomiting [4] | Subjects experiencing at least one TEAE: Gastrointestinal disorders [5] | Subjects experiencing at least one TEAE: Total [5] | Subjects experiencing at least one TEAE: Upper abdominal pain [5]
